Source: patent US20250162989A1, “USP30 INHIBITORS AND USES THEREOF” (Vincere Biosciences, Inc., priority 2021, published 2025)
Read-outs that look alike come from different tables or passages of the source.

Columns and labels:
[1] = target: recombinant USP30 (amino acids 57-517 of the human sequence) (Homo sapiens (Human), UniProt Q70CQ3); test: In vitro USP30 biochemical assay (Ubiquitin-Rhodamine substrate); settings: fluorescence
Procedure: In vitro biochemical assay to establish the potency of compounds for USP30 inhibition: a 384-well plate assay using a fluorophore tagged substrate of USP30 was used for in vitro screening of compounds. Each compound was tested at
10 different concentrations (0.5 to 10,000 nM) in duplicate wells. […] Data were analyzed using Graph Pad Prism software with a four-parameter (floating slope) fit to log concentration data to determine IC50s.

USP30 = USP30 (Homo sapiens (Human), UniProt Q70CQ3); test: Dundee MALDI-TOF mass spectrometry assay (K48-linked diubiquitin cleavage); format: biochemical; settings: USP30 25 ng/μl, K48-linked diubiquitin 5.6 μM
Chain of USP30 (Q70CQ3 whole entry): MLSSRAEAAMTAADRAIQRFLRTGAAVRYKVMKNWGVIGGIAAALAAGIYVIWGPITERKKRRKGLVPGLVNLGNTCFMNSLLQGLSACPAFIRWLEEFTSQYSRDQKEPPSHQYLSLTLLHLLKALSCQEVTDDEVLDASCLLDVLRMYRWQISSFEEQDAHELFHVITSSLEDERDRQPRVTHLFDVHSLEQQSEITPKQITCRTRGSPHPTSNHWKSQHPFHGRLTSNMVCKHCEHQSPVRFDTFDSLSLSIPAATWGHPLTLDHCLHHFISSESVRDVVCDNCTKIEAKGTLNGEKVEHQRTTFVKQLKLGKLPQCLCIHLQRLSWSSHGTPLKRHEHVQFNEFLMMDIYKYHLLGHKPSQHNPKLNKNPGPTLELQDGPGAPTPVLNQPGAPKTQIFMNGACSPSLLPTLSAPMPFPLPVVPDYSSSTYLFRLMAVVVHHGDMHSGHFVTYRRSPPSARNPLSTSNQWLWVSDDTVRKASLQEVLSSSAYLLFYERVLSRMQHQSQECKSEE
Procedure: USP30 was diluted in a buffer containing 40 mM Tris, 0.01% BSA, 1 mM DTT and K48 in 40 mM Tris, 0.01% BSA.
The compounds were pre-incubated with the USP30 for 5 mins at room temp before the K48 dimer addition. The assay mixture was then incubated for 45 mins at room temp. The assay was stopped by the addition of TFA to a final concentration of 2% (v/v).
Acidified samples of the DUB assays were mixed with 0.5 mM 15N-ubiquitin and then with one part of 2% (v/v) TFA and one part of 2.5 DHAP matrix solution (7.6 mg of 2.5 DHAP in […] ethanol and […] of an aqueous 12 mg ml 1 diammonium hydrogen citrate).

[2] = 1.5 nM recombinant USP30, 25 nM Ubiquitin-Rhodamine
[3] = […] recombinant USP30, 25 nM Ubiquitin-Rhodamine

Chain of recombinant USP30 (amino acids 57-517 of the human sequence) (Q70CQ3 57-517): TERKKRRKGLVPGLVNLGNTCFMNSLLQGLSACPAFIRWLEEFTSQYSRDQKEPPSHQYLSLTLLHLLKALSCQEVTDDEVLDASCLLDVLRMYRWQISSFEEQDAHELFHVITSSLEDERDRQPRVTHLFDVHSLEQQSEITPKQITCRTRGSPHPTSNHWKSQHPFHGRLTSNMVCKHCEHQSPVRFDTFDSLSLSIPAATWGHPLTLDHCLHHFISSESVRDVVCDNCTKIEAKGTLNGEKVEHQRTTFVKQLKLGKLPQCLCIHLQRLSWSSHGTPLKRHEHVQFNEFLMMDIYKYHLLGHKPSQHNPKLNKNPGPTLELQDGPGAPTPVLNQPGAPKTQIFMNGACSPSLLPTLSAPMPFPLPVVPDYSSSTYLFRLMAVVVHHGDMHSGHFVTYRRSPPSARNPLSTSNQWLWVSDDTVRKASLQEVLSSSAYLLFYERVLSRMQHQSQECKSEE

Compound	IC50 [1, 2]	IC50 (USP30; read-out: USP30 IC50 μM (avg))	IC50 (USP30; read-out: IC50)	IC50 [1, 3]
O=C(N[C@@H](Cc1ccccc1)C(=O)Nc1ccc(S(=O)(=O)NC2(CO)CC2)nc1)c1ccc(F)cc1 [Compound I-150]	0.05 to 1 µM	< 0.05 µM		
CN1CCC(C[C@H](NC(=O)c2ccc(F)cc2)C(=O)Nc2ccc(S(=O)(=O)N[C@@H]3CCOC3)nc2)CC1 [Compound I-105]	0.05 to 1 µM	0.05 to 1 µM		
C[C@@H](CO)NS(=O)(=O)c1ccc(NC(=O)[C@H](Cc2ccccc2)NC(=O)c2ccc(F)cc2)cn1 [Compound I-149]	0.05 to 1 µM	< 0.05 µM		
CN1CCC(C[C@H](NC(=O)c2ccc(F)cc2)C(=O)Nc2ccc(S(=O)(=O)NC3CCOCC3)cc2)CC1 [Compound I-164]	0.05 to 1 µM	< 0.05 µM		
COc1cc(NC(=O)[C@H](Cc2ccccc2)NC(=O)c2ccc(F)cc2)ccc1S(=O)(=O)N[C@H](C)CO [Compound I-137]	0.05 to 1 µM	< 0.05 µM		
O=C(N[C@@H](Cc1ccccc1)C(=O)Nc1ccc(S(=O)(=O)NC23CC(C2)C3)c(C(F)(F)F)c1)c1ccc(F)cc1 [Compound I-69]	0.05 to 1 µM		< 0.05 µM	
CC(CO)(CO)NS(=O)(=O)c1ccc(NC(=O)[C@H](Cc2ccccc2)NC(=O)c2ccc(F)cc2)cc1 [Compound I-132]	0.05 to 1 µM	< 0.05 µM		
CN1CCC(C[C@H](NC(=O)c2ccc(F)cn2)C(=O)Nc2ccc(S(=O)(=O)NC(C)(C)C)cc2)CC1 [Compound I-185, (S)—N-(1-((4-(N-(tert-butyl)sulfamoyl)phenyl)amino)-3-(1-methylpiperidin-4-yl)-1-oxopropan-2-yl)-5-fluoropicolinamide]		< 0.05 µM		< 0.05 µM
O=C(N[C@@H](Cc1ccccc1)C(=O)Nc1ccc(S(=O)(=O)NC2(CF)CC2)cc1)c1ccc(F)cc1 [Compound I-200]	0.05 to 1 µM	< 0.05 µM		
CC(=O)N1CCC(C[C@H](NC(=O)c2ccc(F)cc2)C(=O)Nc2ccc(S(=O)(=O)NC(C)(C)C)nc2)CC1 [Compound I-156]		< 0.05 µM		< 0.05 µM
Cn1nccc1CNS(=O)(=O)c1ccc(NC(=O)[C@H](Cc2ccccc2)NC(=O)c2ccc(F)cc2)cc1 [Compound I-205]	0.05 to 1 µM	0.05 to 1 µM		
O=C(N[C@@H](Cc1ccccc1)C(=O)Nc1ccc(S(=O)(=O)NC2(CO)CC2)cc1)c1ccc(F)cc1 [Compound I-131]		< 0.05 µM		< 0.05 µM
COc1cc(NC(=O)[C@H](CC2CCOCC2)NC(=O)c2ccc(F)cc2)ccc1S(=O)(=O)NC1CCCC1 [Compound I-87]		< 0.05 µM		< 0.05 µM
O=C(N[C@@H](CC1CCNCC1)C(=O)Nc1ccc(S(=O)(=O)N[C@@H]2CCOC2)cc1)c1ccc(F)cc1 [Compound I-107]	0.05 to 1 µM	0.05 to 1 µM		
CC(=O)CN1CCC(C[C@H](NC(=O)c2ccc(F)cc2)C(=O)Nc2ccc(S(=O)(=O)NC(C)(C)C)cc2)CC1 [Compound I-172]	0.05 to 1 µM	< 0.05 µM		
COc1cc(NC(=O)[C@H](CC2CCOCC2)NC(=O)c2ccc(F)cc2)ccc1S(=O)(=O)NC(C)(C)CO [Compound I-85]	0.05 to 1 µM	0.05 to 1 µM		
COc1cc(NC(=O)[C@H](CC2CCN(C)CC2)NC(=O)c2ccc(F)cc2)ccc1S(=O)(=O)NC(C)(C)C [Compound I-84]	0.05 to 1 µM	< 0.05 µM		
COc1cc(NC(=O)[C@H](Cc2ccccc2)NC(=O)c2ccc(F)cc2)ccc1S(=O)(=O)NC(C)(CO)CO [Compound I-138]	0.05 to 1 µM	< 0.05 µM		
CC(C)(C)NS(=O)(=O)c1ccc(NC(=O)[C@H](CC2CCOCC2)NC(=O)c2ccc(F)cn2)cc1 [Compound I-177]		< 0.05 µM		< 0.05 µM
CC(C)(C)NS(=O)(=O)c1ccc(NC(=O)[C@H](Cc2ccccc2)NC(=O)c2ccc(F)nc2)cc1 [Compound I-163]		< 0.05 µM		< 0.05 µM
O=C(N[C@@H](CC1CCOCC1)C(=O)Nc1ccc(S(=O)(=O)NC2CCOCC2)cc1)c1ccc(F)cc1 [Compound I-128]	0.05 to 1 µM	< 0.05 µM		
COc1cc(NC(=O)[C@H](CC2CCOCC2)NC(=O)c2ccc(F)cc2)cnc1S(=O)(=O)NC1CCCC1 [Compound I-82]	0.05 to 1 µM	< 0.05 µM		
COc1cc(NC(=O)[C@H](CC2CCNCC2)NC(=O)c2ccc(F)cc2)ccc1S(=O)(=O)NC(C)(C)C [Compound I-155]	0.05 to 1 µM	< 0.05 µM		
CC(C)(CO)NS(=O)(=O)c1ccc(NC(=O)C(CC2CCNCC2)NC(=O)c2ccc(F)cc2)cc1 (stereo not drawn) [Compound I-72]	0.05 to 1 µM	0.05 to 1 µM		

Compound	IC50 [1, 2]	IC50 (USP30; read-out: USP30 IC50 μM (avg))	IC50 (USP30; read-out: IC50)	IC50 [1, 3]
C[C@H](CO)NS(=O)(=O)c1ccc(NC(=O)[C@H](Cc2ccccc2)NC(=O)c2ccc(F)cc2)cn1 [Compound I-151]	0.05 to 1 µM	< 0.05 µM		
CN1CCC(C[C@H](NC(=O)c2ccc(F)cc2)C(=O)Nc2ccc(S(=O)(=O)NC(C)(C)C(F)(F)F)cc2)CC1 [Compound I-158]	0.05 to 1 µM	< 0.05 µM		
CC(C)(C)NS(=O)(=O)c1ccc(NC(=O)[C@H](CC2CCN(Cc3ccccc3)CC2)NC(=O)c2ccc(F)cc2)cc1 [Compound I-115]		< 0.05 µM		< 0.05 µM
COCCN1CCC(C[C@H](NC(=O)c2ccc(F)cc2)C(=O)Nc2ccc(S(=O)(=O)NC(C)(C)C)cc2)CC1 [Compound I-173]		< 0.05 µM		< 0.05 µM
CN1CCC(C[C@H](NC(=O)c2ccc(F)cn2)C(=O)Nc2ccc(S(=O)(=O)NC(C)(C)C(F)(F)F)cc2)CC1 [Compound I-202]		< 0.05 µM		< 0.05 µM
C[C@H](CO)NS(=O)(=O)c1ccc(NC(=O)[C@H](Cc2ccccc2)NC(=O)c2ccc(F)cc2)cc1 [Compound I-130]		< 0.05 µM		< 0.05 µM
CC(C)C[C@H](NC(=O)c1ccc(F)cc1)C(=O)Nc1ccc(S(=O)(=O)N[C@@H]2CCOC2)cc1 [Compound I-71]	0.05 to 1 µM	< 0.05 µM		
CC(C)(C)NS(=O)(=O)c1ccc(NC(=O)C(CC2CCN(C=O)CC2)NC(=O)c2ccc(F)cc2)cc1 (stereo not drawn) [Compound I-145]		< 0.05 µM		< 0.05 µM
COc1cc(NC(=O)[C@H](CC2CCN(C(C)=O)CC2)NC(=O)c2ccc(F)cc2)ccc1S(=O)(=O)NC(C)(C)C [Compound I-160]		< 0.05 µM		< 0.05 µM
COc1cc(NC(=O)[C@H](CC2CCNCC2)NC(=O)c2ccc(F)cc2)ccc1S(=O)(=O)NC(C)(C)CF [Compound I-209]	0.05 to 1 µM	0.05 to 1 µM		
CN1CCC(C[C@H](NC(=O)c2ccc(F)cc2)C(=O)Nc2ccc(S(=O)(=O)NC(C)(C)CO)nc2)CC1 [Compound I-106]	0.05 to 1 µM	0.05 to 1 µM		
O=C(N[C@@H](CC1CCOCC1)C(=O)Nc1ccc(S(=O)(=O)NC2CCOCC2)nc1)c1ccc(F)cc1 [Compound I-133]	0.05 to 1 µM	< 0.05 µM		
CC(=O)N1CCC(CC(NC(=O)c2ccc(F)cc2)C(=O)Nc2ccc(S(=O)(=O)NC(C)(C)C)cc2)CC1 (stereo not drawn) [Compound I-101]		< 0.05 µM		< 0.05 µM
COc1cc(NC(=O)[C@H](CC2CCNCC2)NC(=O)c2ccc(F)cc2)ccc1S(=O)(=O)N[C@@H]1CCOC1 [Compound I-110]	0.05 to 1 µM	0.05 to 1 µM		
CC(C)(C)NS(=O)(=O)c1ccc(NC(=O)[C@H](Cc2ccccc2)NC(=O)C2CCOCC2)cc1 [Compound I-174]	0.05 to 1 µM	0.05 to 1 µM		
Cn1ccc(N2CCC(C[C@H](NC(=O)c3ccc(F)cc3)C(=O)Nc3ccc(S(=O)(=O)NC(C)(C)C)nc3)CC2)n1 [Compound I-293]		< 0.05 µM		< 0.05 µM
O=C(N[C@@H](CC1CCOCC1)C(=O)Nc1ccc(S(=O)(=O)NC2CCC2)nc1)c1ccc(F)cc1 [Compound I-91]	0.05 to 1 µM	< 0.05 µM		
COCCC(C)(C)NS(=O)(=O)c1ccc(NC(=O)[C@H](Cc2ccccc2)NC(=O)c2ccc(F)cc2)cc1C(F)(F)F [Compound I-65]	0.05 to 1 µM		< 0.05 µM	
CC(C)(CF)NS(=O)(=O)c1ccc(NC(=O)[C@H](CC2CCNCC2)NC(=O)c2ccc(F)cc2)cc1 [Compound I-122]	0.05 to 1 µM	< 0.05 µM		
COc1cc(NC(=O)[C@H](CC2CCNCC2)NC(=O)c2ccc(F)cc2)ccc1S(=O)(=O)NC1COC1 [Compound I-109, (S)-4-fluoro-N-(1-((3-methoxy-4-(N-(oxetan-3-yl)sulfamoyl)phenyl)amino)-1-oxo-3-(piperidin-4-yl)propan-2-yl)benzamide]	0.05 to 1 µM	< 0.05 µM		
CN1CCC(C[C@H](NC(=O)c2ccc(F)cc2)C(=O)Nc2ccc(S(=O)(=O)N[C@@H]3CCOC3)cc2)CC1 [Compound I-103]	0.05 to 1 µM	0.05 to 1 µM		
COc1cc(NC(=O)[C@H](CC2CCN(C)CC2)NC(=O)c2ccc(F)cc2)ccc1S(=O)(=O)NC1CCOCC1 [Compound I-143]	0.05 to 1 µM	0.05 to 1 µM		
CNCCN1CCC(C[C@H](NC(=O)c2ccc(F)cc2)C(=O)Nc2ccc(S(=O)(=O)NC(C)(C)C)cc2)CC1 [Compound I-171]		< 0.05 µM		< 0.05 µM
CC(CO)(CO)NS(=O)(=O)c1ccc(NC(=O)[C@H](Cc2ccccc2)NC(=O)c2ccc(F)cc2)cn1 [Compound I-148]	0.05 to 1 µM	0.05 to 1 µM		
